Drawing on ChEMBL document CHEMBL5579876, “Small Molecules Blocking the Assembly of TCAB1 and Telomerase Complexes: Lead Discovery and Biological Activity” (ACS Med Chem Lett, 2024), this text covers Activity, inhibition and IC50 for 22 molecules.

What is called IC50 is the concentration that inhibits the measured activity by half.

Each structure is given as a SMILES string. Activity calls are given as the source filed them. The rule behind the calls is not given here. Some results are limits rather than exact numbers.

The target of data set [1] is Telomerase Cajal body protein 1 (Homo sapiens) (UniProt Q9BUR4). Kind of data set: Thermal stabilization of TCAB1 in human HL-60 cells at 10 uM incubated for 30 mins by CETSA. The data set is classed as cell-based.
Sequence of Telomerase Cajal body protein 1 (Homo sapiens) (Q9BUR4 whole entry): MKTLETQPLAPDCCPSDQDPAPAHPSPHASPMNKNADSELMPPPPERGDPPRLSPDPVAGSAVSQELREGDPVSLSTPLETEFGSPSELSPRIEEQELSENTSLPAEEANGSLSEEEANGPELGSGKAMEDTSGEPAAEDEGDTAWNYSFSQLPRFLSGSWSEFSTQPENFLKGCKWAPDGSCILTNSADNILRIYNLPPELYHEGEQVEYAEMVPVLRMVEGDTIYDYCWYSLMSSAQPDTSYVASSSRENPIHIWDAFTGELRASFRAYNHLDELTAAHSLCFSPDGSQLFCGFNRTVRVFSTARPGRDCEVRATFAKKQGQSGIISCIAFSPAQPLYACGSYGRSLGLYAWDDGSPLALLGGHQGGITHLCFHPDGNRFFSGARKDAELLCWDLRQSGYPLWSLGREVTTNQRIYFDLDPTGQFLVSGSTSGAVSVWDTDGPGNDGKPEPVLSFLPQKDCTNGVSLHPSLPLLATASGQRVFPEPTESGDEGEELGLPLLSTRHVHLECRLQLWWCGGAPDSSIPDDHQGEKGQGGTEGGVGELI
For data set [2] the target is unchanged. Kind of data set: Inhibition of hTERT binding to TCAB1 in human HL-60 cells at 10 uM incubated for 48 hrs by Co-IP analysis. In kind it is cell-based.
The nature of data set [3]: Cytotoxicity against human GES1 cells assessed as inhibition of cell growth measured after 96 hrs by CCK-8 assay. The data set is classed as toxicity, cell-based.
In the next data set the test system is HL-60. The experiment in a line: cells. As to conditions: Homo sapiens, HL-60, 96 h.
A further data set deals with CT26. Kind of data set: cells. As to conditions: Mus musculus, CT26, 96 h.
For data set [4], the target named is Telomerase reverse transcriptase (Homo sapiens, UniProt O14746). The experiment in a line: Inhibition of telomerase activity in human HL-60 cells incubated for 96 hrs by TRAP-PCR assay. The data set is classed as cell-based.
Sequence of Telomerase reverse transcriptase (O14746 whole entry): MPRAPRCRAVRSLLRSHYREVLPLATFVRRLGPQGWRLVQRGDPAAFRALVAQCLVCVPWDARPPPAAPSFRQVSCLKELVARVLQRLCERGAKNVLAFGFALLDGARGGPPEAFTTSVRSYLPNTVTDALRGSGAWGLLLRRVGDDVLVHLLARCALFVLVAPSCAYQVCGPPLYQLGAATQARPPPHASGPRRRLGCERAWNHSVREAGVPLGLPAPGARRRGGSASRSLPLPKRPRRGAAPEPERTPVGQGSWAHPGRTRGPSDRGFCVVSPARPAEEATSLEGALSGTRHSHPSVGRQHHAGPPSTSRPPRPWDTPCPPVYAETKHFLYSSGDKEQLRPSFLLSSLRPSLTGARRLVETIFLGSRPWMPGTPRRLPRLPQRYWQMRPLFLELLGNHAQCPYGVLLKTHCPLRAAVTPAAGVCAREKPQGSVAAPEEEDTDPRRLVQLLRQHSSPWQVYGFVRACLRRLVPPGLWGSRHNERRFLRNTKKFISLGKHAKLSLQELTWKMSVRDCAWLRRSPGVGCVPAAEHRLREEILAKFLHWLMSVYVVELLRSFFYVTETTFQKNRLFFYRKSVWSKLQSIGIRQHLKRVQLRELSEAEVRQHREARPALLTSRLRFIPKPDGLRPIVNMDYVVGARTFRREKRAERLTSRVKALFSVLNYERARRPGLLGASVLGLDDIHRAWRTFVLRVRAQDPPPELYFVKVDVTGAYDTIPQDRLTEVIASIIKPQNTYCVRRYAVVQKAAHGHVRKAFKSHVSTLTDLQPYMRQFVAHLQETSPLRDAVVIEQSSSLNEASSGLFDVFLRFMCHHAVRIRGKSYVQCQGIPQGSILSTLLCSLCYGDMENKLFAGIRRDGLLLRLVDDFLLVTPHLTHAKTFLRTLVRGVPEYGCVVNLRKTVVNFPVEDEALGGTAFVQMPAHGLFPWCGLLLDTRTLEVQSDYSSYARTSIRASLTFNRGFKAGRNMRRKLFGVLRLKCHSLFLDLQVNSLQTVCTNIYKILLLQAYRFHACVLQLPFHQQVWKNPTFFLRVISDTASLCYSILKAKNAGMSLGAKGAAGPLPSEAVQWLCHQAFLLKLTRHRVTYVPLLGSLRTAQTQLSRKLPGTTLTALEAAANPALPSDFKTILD

Description for CT26: Antiproliferative activity against mouse CT26 cells assessed as inhibition of cell growth measured after 96 hrs by CCK-8 assay
Description for HL-60: Antiproliferative activity against human HL-60 cells assessed as inhibition of cell growth measured after 96 hrs by CCK-8 assay

In the case of `COC(=O)C1=C(C)N(CC2CCCO2)C(=O)/C1=C\c1ccc(OCC(=O)NC(C)C)cc1` (configuration not stated), the outcome in data set [1] was Active. In data set [2], the inhibition result is “inactive”. Moreover, in data set [3], the IC50 at 96 h is above 1000 µM. The IC50 in the data set with HL-60 was 156 µM; in the data set on CT26, 26.9 µM.
`CCOc1cc(C2C(C#N)=C(N)Oc3n[nH]c(C(C)(C)C)c32)ccc1OCCN1CCOCC1` (configuration not stated) displayed an IC50 in data set [4] above 10 µM.
Regarding `CCn1c(CN2NC(C)=CCC2=O)nnc1SCC(=O)Nc1ccc(S(N)(=O)=O)cc1`, the half-maximal inhibitory concentration (IC50) in data set [4] is above 10 µM.
For the molecule `CCOc1cc(C2NC(=O)NC(C)=C2C(=O)OCc2ccc3c(c2)OCO3)ccc1O` (configuration not stated), the IC50 in data set [4] was above 10 µM.
Take `C#CCOc1ccc(/C=C2\SC(Nc3ccc(OCC)cc3)=C(C(=O)OCC)C2=O)cc1OC`: the result in data set [1] was Active. The inhibition result in data set [2] is “inactive”. For the same molecule, the IC50 at 96 h in data set [3] is above 1000 µM. The IC50 was above 200 µM in the data set with HL-60 and 46.3 µM in the data set with CT26.
In turn, `CC(=O)Nc1ccc(/C=C2\C=C(C(O)c3ccc(NC(C)=O)cc3)c3ccccc32)cc1` (configuration not stated) displayed an IC50 in data set [4] above 10 µM.
`COc1ccc(C2C(C(=O)Nc3ccc(Cl)cc3)=C(C)N=C3N=C(CCCO)NN32)c(OC)c1` (configuration not stated) yielded an IC50 in data set [4] above 10 µM.
On the same count and under the same terms, to `CCC(CO)NS(=O)(=O)c1cccc2c(S(=O)(=O)NC(CC)CO)cccc12` (configuration not stated) belongs above 10 µM; to `Cc1ccc2nc(NCCO)c(/C=C3\SC(=S)N(Cc4ccc5c(c4)OCO5)C3=O)c(=O)n2c1`, above 10 µM; to `CCOc1cc(/C=C2/C(=N)N3N=C(C)SC3=NC2=O)ccc1OCCOc1cccc(OC)c1`, above 10 µM.
`O=C(CCS(=O)(=O)c1nc(-c2ccccc2)cc(C(F)(F)F)n1)Nc1cccnc1Cl` yielded an IC50 in data set [4] above 10 µM.
Same read-out and setting: the result for `CCOc1cc(C2NC(=O)N(C)C(C)=C2C(=O)OCC2CCCO2)cc(Cl)c1O` (configuration not stated) reads above 10 µM; that for `CCOc1ccc(N2C(=O)CC(N(CCc3ccc(S(N)(=O)=O)cc3)C(C)=O)C2=O)cc1` (configuration not stated), above 10 µM.
`COc1ccc(-c2ccc(S(=O)(=O)NCCO)cc2)c(S(=O)(=O)NCCO)c1` registered an IC50 in data set [4] above 10 µM.
With `CCCc1cc(=O)oc2cc(OCC(=O)Nc3ccc(S(N)(=O)=O)cc3)c(Cl)cc12`, the IC50 in data set [4] is above 10 µM.
Molecule `CCOC(=O)c1cccc(NC(=O)CSc2nnc(-c3cccnc3)n2-c2ccc(OC)cc2)c1` returned an IC50 in data set [4] above 10 µM.
Regarding `O=C(C1=C(O)C(=O)N(Cc2ccco2)C1c1cccc(O)c1)c1ccc2c(c1)OCCO2` (configuration not stated), the outcome in data set [1] was Active. The inhibition result in data set [2] was “inactive”. For the same molecule, the IC50 at 96 h in data set [3] was above 1000 µM. Besides, the IC50 in the data set with HL-60 and in the data set with CT26 was above 200 µM each time.
Take `CC(=O)c1cccc(/N=c2\scc(-c3ccc(S(=O)(=O)N4CCOCC4)cc3)n2CCO)c1`: the IC50 in data set [4] is above 10 µM.
In the case of `CCOC(=O)C1=C(C)N=c2s/c(=C\c3ccc(O)c(OC)c3)c(=O)n2C1c1ccc(OCC)cc1` (configuration not stated), in data set [4], the IC50 is above 10 µM.
As for `C/C(=C\C(=O)Nc1ccccc1C(=O)O)c1ccc2ccccc2c1`, the values for the IC50 (in data set [4]; in the data set on HL-60; in the data set with CT26) were 0.091 µM, 47.8 µM and 42.9 µM, respectively. The IC50 at 96 h in data set [3] came to 206 µM.
`COc1ccc(C(=O)C2=C(O)C(=O)N(CCO)C2c2ccc(C)cc2)cc1` (configuration not stated) yielded an IC50 in data set [4] above 10 µM.
Same read-out and setting: the result for `O=C(C1=C(O)C(=O)N(CCOCCO)C1c1cccc(O)c1)c1cccs1` (configuration not stated) reads above 10 µM.
